Legend:
Type in all cases: in vivo
[1] = tested on: pigweed (Amaranthus retroflexus); assay: Test A preemergence pigweed; details: 0 to 100 scale, 0 no effect, 100 complete control
How it was run: (§1)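 Directed soil spray at planting gives preemergence data; foliar application to one- to two-leaf plants gives postemergence data. Response is visual injury relative to untreated controls about 10 d after treatment, scored 0–100.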

[2] = tested on: barnyardgrass (Echinochloa crus-galli); assay: Test A postemergence barnyardgrass; details: 0 to 100 scale, 0 is no effect, 100 is complete control
How it was run: as §1

[3] = tested on: wheat (Triticum aestivum); assay: Test A postemergence wheat; details: 0 to 100 scale, 0 is no effect, 100 is complete control
How it was run: as §1

[4] = tested on: ducksalad (Heteranthera limosa); assay: Test B flooded paddy test ducksalad; details: Table B, Flood, 500 g ai/ha, scale 0 to 100
How it was run: (§2)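 2-leaf plants; flood 3 cm over soil; cpd into paddy water; water depth kept; greenhouse 13–15 d; visual rating vs controls.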

[5] = tested on: ragweed (common ragweed, Ambrosia elatior); assay: Test A preemergence ragweed; details: 0 to 100 scale, 0 no effect, 100 complete control
How it was run: as §1

[6] = tested on: kochia (Kochia scoparia); assay: Test A postemergence kochia; details: 0 to 100 scale, 0 is no effect, 100 is complete control
How it was run: as §1

[7] = tested on: kochia (Kochia scoparia); assay: Test A preemergence kochia; details: 0 to 100 scale, 0 no effect, 100 complete control
How it was run: as §1

[8] = tested on: blackgrass (Alopecurus myosuroides); assay: Test A postemergence blackgrass; details: 0 to 100 scale, 0 is no effect, 100 is complete control
How it was run: as §1

[9] = tested on: foxtail, giant (giant foxtail, Setaria faberii); assay: Test A preemergence foxtail, giant; details: 0 to 100 scale, 0 no effect, 100 complete control
How it was run: as §1

[10] = tested on: pigweed (Amaranthus retroflexus); assay: Test A postemergence pigweed; details: 0 to 100 scale, 0 is no effect, 100 is complete control
How it was run: as §1

[11] = tested on: sedge, umbrella (small-flower umbrella sedge, Cyperus difformis); assay: Test B flooded paddy test sedge, umbrella; details: Table B, Flood, 500 g ai/ha, scale 0 to 100
How it was run: as §2

[12] = tested on: foxtail, giant (giant foxtail, Setaria faberii); assay: Test A postemergence foxtail, giant; details: 0 to 100 scale, 0 is no effect, 100 is complete control
How it was run: as §1

[13] = tested on: galium (catchweed bedstraw, Galium aparine); assay: Test A postemergence galium; details: 0 to 100 scale, 0 is no effect, 100 is complete control
How it was run: as §1

[14] = tested on: barnyardgrass (Echinochloa crus-galli); assay: Test B flooded paddy test barnyardgrass; details: Table B, Flood, 500 g ai/ha, scale 0 to 100
How it was run: as §2

[15] = tested on: rice (Oryza sativa); assay: Test B flooded paddy test rice; details: Table B, Flood, 500 g ai/ha, scale 0 to 100
How it was run: as §2

[16] = tested on: corn (Zea mays); assay: Test A postemergence corn; details: 0 to 100 scale, 0 is no effect, 100 is complete control
How it was run: as §1

[17] = tested on: ryegrass, Italian (Italian ryegrass, Lolium multiflorum); assay: Test A preemergence ryegrass, Italian; details: 0 to 100 scale, 0 no effect, 100 complete control
How it was run: as §1

[18] = tested on: barnyardgrass (Echinochloa crus-galli); assay: Test A preemergence barnyardgrass; details: 0 to 100 scale, 0 no effect, 100 complete control
How it was run: as §1

[19] = tested on: ragweed (common ragweed, Ambrosia elatior); assay: Test A postemergence ragweed; details: 0 to 100 scale, 0 is no effect, 100 is complete control
How it was run: as §1

[20] = tested on: ryegrass, Italian (Italian ryegrass, Lolium multiflorum); assay: Test A postemergence ryegrass, Italian; details: 0 to 100 scale, 0 is no effect, 100 is complete control
How it was run: as §1

SMILES: O=C1NCCC(c2cccc(C(F)(F)F)c2)C1C(=O)Nc1ccccc1Cl (racemic) [Compound 17]
- Pigweed plant response rating ([1]; 125 g ai/ha): 0
- Pigweed plant response rating ([1]; 500 g ai/ha): 0
- Plant response rating, Barnyardgrass ([2]; 125 g ai/ha): 80
- Plant response rating, Barnyardgrass ([2]; 500 g ai/ha): 80
- Plant response rating, Wheat ([3]; 125 g ai/ha): 20
- Plant response rating, Wheat ([3]; 500 g ai/ha): 20
- Plant response rating [4]: 40
- Ragweed plant response rating ([5]; 125 g ai/ha): 0
- Ragweed plant response rating ([5]; 500 g ai/ha): 0
- Plant response rating, Kochia ([6]; 125 g ai/ha): 0
- Plant response rating, Kochia ([6]; 500 g ai/ha): 20
- Kochia plant response rating ([7]; 125 g ai/ha): 30
- Kochia plant response rating ([7]; 500 g ai/ha): 30
- Plant response rating, Blackgrass ([8]; 125 g ai/ha): 30
- Plant response rating, Blackgrass ([8]; 500 g ai/ha): 30
- Foxtail, Giant plant response rating ([9]; 125 g ai/ha): 80
- Foxtail, Giant plant response rating ([9]; 500 g ai/ha): 90
- Plant response rating, Pigweed ([10]; 125 g ai/ha): 0
- Plant response rating, Pigweed ([10]; 500 g ai/ha): 0
- Plant response rating [11]: 0
- Plant response rating, Foxtail, Giant ([12]; 125 g ai/ha): 80
- Plant response rating, Foxtail, Giant ([12]; 500 g ai/ha): 80
- Plant response rating, Galium ([13]; 125 g ai/ha): 20
- Plant response rating, Galium ([13]; 500 g ai/ha): 20
- Plant response rating [14]: 35
- Plant response rating [15]: 0
- Plant response rating, Corn ([16]; 125 g ai/ha): 0
- Plant response rating, Corn ([16]; 500 g ai/ha): 0
- Ryegrass, Italian plant response rating ([17]; 125 g ai/ha): 20
- Ryegrass, Italian plant response rating ([17]; 500 g ai/ha): 40
- Barnyardgrass plant response rating ([18]; 125 g ai/ha): 50
- Barnyardgrass plant response rating ([18]; 500 g ai/ha): 80
- Plant response rating, Ragweed ([19]; 125 g ai/ha): 0
- Plant response rating, Ragweed ([19]; 500 g ai/ha): 0
- Plant response rating, Ryegrass, Italian ([20]; 125 g ai/ha): 0
- Plant response rating, Ryegrass, Italian ([20]; 500 g ai/ha): 20

— patent US9944602B2, “Piperidinone herbicides” (E. I. DU PONT DE NEMOURS AND COMPANY, priority 2014, dated 2018)
